The values that follow come from US20260021147A1, “COMPOSITIONS AND METHODS FOR TREATING INFLAMMATORY DISEASE” (The Regents of the University of Michigan, priority 2022, published 2026).

Data set [1] deals with allogeneic mice (B6D2F1 recipients of B6 donor cells). Put plainly: Murine GvHD model (allo-HSCT): survival and GvHD histology. The conditions noted are these: for severity of colonic GvHD: antibiotic in drinking water, colon collected day 20, vs control allogeneic mice. Type of data set: in vivo. On the procedure:
In a murine model with a mucin-deficient mutate strain of BT, piperacillin/tazobactam was given at a concentration of 3.2 g/L in combination with vancomycin and metronidazole dosed 1.5 mg daily by oral gavage from days −16 to −12 relative to transplant.
D-(+)-xylose (X3877, Sigma-Aldrich) or D-(+)-glucose (G8270, Sigma-Aldrich) was dissolved in phosphate buffer pH 8.0 with meropenem or in water without meropenem and given at a concentration of 0.5% from days 13 to 28 after allo-HSCT.
Mice were transplanted as previously described (Hayase et al., 2017).
(§1) Pathology scores were quantified by a blinded pathologist. […] Sections were imaged using an Aperio AT2.

For a further data set, the system named is intestinal microbiota. Put plainly: 16S rRNA sequencing of fecal and mucosal microbiome in mice. The format is in vivo. The procedure:
Fecal samples which were collected from patients and mice and colonic mucosal samples, which were collected from mice were weighed before DNA isolation. […] The quality and quantity of the barcoded amplicons were assessed on an Agilent 4200 TapeStation system (Agilent) and Qubit Fluorometer (Thermo Fisher Scientific), and libraries were prepared after pooling at equimolar ratios. The final libraries were purified using QIAquick gel extraction kit (28706X4, Qiagen) and sequenced with a 2×250 base pair paired-end protocol on the Illumina MiSeq platform.
For differential abundance analysis, abundances of sequences belonging to taxonomical groups were included for analysis using the Mann-Whitney U test and adjusted for multiple comparisons using the method of Benjamini-Hochberg. Paired samples were analyzed using the Wilcoxon signed rank test with adjustment for multiple comparisons.

Data set [2] in a line: Short chain fatty acids profiling of mouse feces by IC-MS. The format is in vivo, mice. The conditions noted are these: allogeneic mice, day 20. The procedure: To determine the relative abundance of short chain fatty acids in mouse feces samples, extracts were prepared and analyzed by ultra-high resolution mass spectrometry (HRMS). Fecal pellets were homogenized with a Precellys Tissue Homogenizer. Metabolites were extracted using 1 mL ice-cold 0.1% Ammonium hydroxide in 80/20 (v/v) methanol/water. Extracts were centrifuged at 17,000 g for 5 min at 4° C., and supernatants were transferred to clean tubes, followed by evaporation to dryness under nitrogen. Dried extracts were reconstituted in deionized water, and 5 μL was injected for analysis by IC-MS. IC mobile phase A (MPA; weak) was water, and mobile phase B (MPB; strong) was water containing 100 mM KOH. A Thermo Scientific Dionex ICS-5000+ system included a Thermo IonPac AS11 column (4 μm particle size, 250×2 mm) with column compartment kept at 30° C. The autosampler tray was chilled to 4° C. The mobile phase flow rate was 360 μL/min, and the gradient elution program was: 0-5 min, 1% MPB; 5-25 min, 1-35% MPB; 25-39 min, 35-99% MPB; 39-49 min, 99% MPB; 49-50, 99-1% MPB. The total run time was 50 min. To assist the desolvation for better sensitivity, methanol was delivered by an external pump and combined with the eluent via a low dead volume mixing tee. Data were acquired using a Thermo Orbitrap Fusion Tribrid Mass Spectrometer under ESI negative ionization mode at a resolution of 240,000. […]

A further data set has as its system colonic mucus layer. Put plainly: Colonic mucus thickness by PAS staining. The conditions noted are these: meropenem-treated allogeneic mice (FIG. 6, FIG. 12 titles). The format is in vivo, mice.
Excerpt: as §1

Data set [3] concerns BT (MDA-JAX BT001) PUL transcripts. In words: RNA sequencing of stool: PUL expression in BT. Type of data set: in vivo, Bacteroides thetaiotaomicron. To be noted: supplementation in meropenem-treated allogeneic mice. On the procedure:
Approximately 30 mg of stool was freshly collected in 700 μL of ice cold Qiazol containing 200 μL of 0.1 mm diameter Zirconia Silica beads (11079101z, BioSpec). Samples were bead beaten twice for 2 min with a 30 second interval recovery. Samples were then centrifuged at 12,000 g for 1 min and the supernatant was collected for RNA isolation using the RNeasy mini kit (74104, Qiagen). RNA was treated on column with DNase I (79254, Qiagen) to eliminate contaminating genomic DNA. RNA quantity and quality was determined using an Agilent 4200 TapeStation system (Agilent). 250 ng of total RNA from mouse stools was used to construct libraries using the Nugen Ovation Complete Prokaryotic RNA-Seq Systems (NuGen) or the Universal Prokaryotic RNA-Seq Library Preparation Kit (9367-32, Tecan) with Unique Dual Indexes (S02480-FG, Tecan), following the manufacturer's protocol. The cDNA libraries were sequenced on the Illumina MiSeq or NovaSeq 6000 system to produce either 1×300 bp single-end reads or 2×150 bp paired-end reads. […] The total reads of mouse stool samples were 950923±113406 (mean ±standard deviation) in FIG. 6A and 137623366±38865363 in FIG. 6G-H and 12G. […] Aligned mRNA expression changes were calculated using the Mann-Whitney U test in R software version 3.6.0 via RStudio version 1.2.1335. […]

Data set [4] has as its system mouse- and human-derived BT. Put plainly: Bacterial culture of BT with or without monosaccharide. Type of data set: cell-based, Bacteroides thetaiotaomicron. To be noted: carbohydrate-poor media, in vitro. On the procedure:
Mouse-derived BT (MDA-JAX BT001), Enterococcus faecalis (MDA-JAX EF001) and Clostridium disporicum (MDA-JAX CD001), Clostridium saudiense (MDA-JAX CS001), and Lachnospiraceae unclassified (MDA-JAX LS001) were isolated and cultured from mouse stool samples suspended in 1 ml of chilled 20% anaerobic glycerol in a Whitley anaerobic chamber (10% H2, 5% CO2 and 85% N2). Human-derived BT (ATCC 29148) was purchased from ATCC. Bacterial number was quantified using a Nexcelom Cellometer cell counter with SYTO™ BC dye and propidium iodide. For measuring MICs against meropenem, bacteria were cultured on BYE plates including 5% sterilized rumen fluid (Fisher Scientific) with MIC test strips (Liofilchem™ MTS™ Meropenem [MRP] 0.016-256 μg/mL, Fisher Scientific). Bacterial growth experiments were performed in a bacterial liquid media, BYEM10, composed of a hybrid of BHI and M10 supplemented with yeast extract (Table 4). Bacteria were cultured up to 48 hours at a starting concentration of 1×10^6 bacteria/ml in BYEM10 broth (pH 7.2) with and without 5 mg/ml of porcine gastric mucin (M1778, Sigma-Aldrich) with or without 0.5 mg/ml of D-(+)-xylose (X3877), D-(+)-mannose (M8574, Sigma-Aldrich) or D-(+)-glucose (G8270). Optical densities (OD600 nm) of bacterial cultures were measured with a BioTek EPOCH 2 plate reader.

`CO/N=C(\C(=O)N[C@@H]1C(=O)N2C(C(=O)[O-])=C(C[N+]3(C)CCCC3)CS[C@H]12)c1csc(N)n1` [cefepime]: the “severity of colonic GvHD” value in data set [1] is “do not increase the severity of colonic GvHD”. For the same compound, the “abundances of BT” value in the data set with intestinal microbiota (day 20, compared to meropenem-treated mice) is on record as “significantly lower abundances of BT”. Besides, the “compositional differences between luminal and mucosal samples” value with intestinal microbiota (treated allogeneic mice, PERMANOVA testing) was “loss of compositional differences”. Moreover, in data set [2], the “fecal levels of SCFAs” value is given as “did not show substantially reduced fecal levels of SCFAs”.

As for `C[C@H]1COc2c(N3CCN(C)CC3)c(F)cc3c(=O)c(C(=O)O)cn1c23` [levofloxacin], in data set [1], the “severity of colonic GvHD” value is recorded as “do not increase the severity of colonic GvHD”.

Consider `O=C[C@H](O)[C@@H](O)[C@H](O)CO` [xylose, D-(+)-xylose], for which the “mucolytic activity / mucus-degrading function of BT” value in the data set on colonic mucus layer was “suppressed”. Also, the overall survival entry in data set [1] (0.5% xylose days 13 to 28, meropenem-treated allogeneic mice) is given as “significantly improved the survival”. Further, in data set [3], the “expression of ORF GH2_PUL89_16” value is recorded as “significantly downregulated”. The “growth of mouse- and human-derived BT” value in data set [4] is reported as “augmented”.
